Patent publication US20250230193A1, “CYCLIC COMPOUND HAVING SELECTIVE KRAS INHIBITORY EFFECT ON HRAS AND NRAS” (CHUGAI SEIYAKU KABUSHIKI KAISHA, priority 2022, published 2025)

Key:
[1] = biological target: GDP-bound HRAS wild-type protein (Homo sapiens, UniProt P01112); test: Binding to HRAS by surface plasmon resonance (SPR), Single Cycle Kinetics; settings: KD ratio HRAS/KRAS, SPR
[2] = biological target: GDP-bound NRAS wild-type protein (Homo sapiens, UniProt P01111); test: Binding to NRAS by surface plasmon resonance (SPR), Single Cycle Kinetics; settings: KD ratio NRAS/KRAS, SPR
Chain of GDP-bound NRAS wild-type protein (P01111 whole entry): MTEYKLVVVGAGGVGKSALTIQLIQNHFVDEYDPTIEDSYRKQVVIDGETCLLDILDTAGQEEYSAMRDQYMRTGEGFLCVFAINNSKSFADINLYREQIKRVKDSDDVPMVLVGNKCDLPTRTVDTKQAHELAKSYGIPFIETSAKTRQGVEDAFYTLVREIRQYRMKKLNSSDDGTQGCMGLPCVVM

Chain of GDP-bound HRAS wild-type protein (P01112 whole entry): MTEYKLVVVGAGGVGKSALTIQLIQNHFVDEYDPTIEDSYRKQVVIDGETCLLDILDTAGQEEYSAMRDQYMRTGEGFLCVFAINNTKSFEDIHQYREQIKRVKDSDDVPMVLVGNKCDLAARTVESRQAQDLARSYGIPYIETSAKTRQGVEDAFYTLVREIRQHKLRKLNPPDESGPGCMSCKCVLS

Row | SMILES | HRAS/KRAS (ratio of KD value with respect to GDP-bound HRAS wild-type protein to KD value with respect to KRAS) [1] | NRAS/KRAS (ratio of KD value with respect to GDP-bound NRAS wild-type protein to KD value with respect to KRAS) [2]
1 | CCO[C@@H]1C[C@H]2C(=O)NC3(CCCC3)C(=O)N(C)[C@@H](C3CCCC3)C(=O)N(C)[C@H](C(=O)N3CCOCC3)CC(=O)N(C)[C@@H](CC(C)C)C(=O)N[C@@H]([C@@H](C)CC)C(=O)N(C)CC(=O)N(C)[C@H]3CCCCN(C3=O)[C@@H](Cc3ccc(C(F)(F)F)cc3)C(=O)N(C)CC(=O)N[C@@H](CCc3cc(F)c(C(F)(F)F)c(F)c3)C(=O)N2C1 [PP0554] | B (a compound having 3 or more and less than 10 is denoted as B) | B (a compound having 3 or more and less than 10 is denoted as B)
2 | CC[C@H](C)[C@@H]1NC(=O)[C@H](CC(C)C)N(C)C(=O)C[C@@H](C(=O)N2CCOCC2)N(C)C(=O)[C@H](C2CCCC2)N(C)C(=O)C2(CCCC2)NC(=O)[C@@H]2CC(=O)CN2C(=O)[C@H](CCc2cc(F)c(C(F)(F)F)c(F)c2)NC(=O)CN(C)C(=O)[C@H](Cc2ccc(C(F)(F)F)cc2)N2CCCC[C@@H](C2=O)N(C)C(=O)CN(C)C1=O [PP0555] | B (a compound having 3 or more and less than 10 is denoted as B) | B (a compound having 3 or more and less than 10 is denoted as B)
3 | CC[C@H](C)[C@@H]1NC(=O)[C@H](CC(C)C)N(C)C(=O)C[C@@H](C(=O)N2CCOCC2)N(C)C(=O)[C@H](C2CCCC2)N(C)C(=O)C2(CCCC2)NC(=O)[C@@H]2C[C@H](O)CN2C(=O)[C@H](CCc2cc(F)c(C(F)(F)F)c(F)c2)NC(=O)CN(C)C(=O)[C@H](Cc2ccc(C(F)(F)F)cc2)N2CCCC[C@@H](C2=O)N(C)C(=O)CN(C)C1=O [PP0556] | B (a compound having 3 or more and less than 10 is denoted as B) | C (A compound having a KD ratio of 0.1 or more and less than 3 is denoted as C)
4 | CC[C@H](C)[C@@H]1NC(=O)[C@H](CC(C)C)N(C)C(=O)C[C@@H](C(=O)N2CCOCC2)N(C)C(=O)[C@H](C2CCCC2)N(C)C(=O)C2(CCCC2)NC(=O)[C@@H]2C[C@H](OC)CN2C(=O)[C@H](CCc2cc(F)c(C(F)(F)F)c(F)c2)NC(=O)CN(C)C(=O)[C@H](Cc2ccc(C(F)(F)F)cc2)N2CCCC[C@@H](C2=O)N(C)C(=O)CN(C)C1=O [PP0557] | B (a compound having 3 or more and less than 10 is denoted as B) | B (a compound having 3 or more and less than 10 is denoted as B)
5 | CC[C@H](C)[C@@H]1NC(=O)[C@H](CC(C)C)N(C)C(=O)C[C@@H](C(=O)N2CCOCC2)N(C)C(=O)[C@H](C2CCCC2)N(C)C(=O)C2(CCCC2)NC(=O)[C@@H]2[C@@H](O)CCN2C(=O)[C@H](CCc2cc(F)c(C(F)(F)F)c(F)c2)NC(=O)CN(C)C(=O)[C@H](Cc2ccc(C(F)(F)F)cc2)N2CCCC[C@@H](C2=O)N(C)C(=O)CN(C)C1=O [PP0558] | B (a compound having 3 or more and less than 10 is denoted as B) | B (a compound having 3 or more and less than 10 is denoted as B)
6 | CC[C@H](C)[C@@H]1NC(=O)[C@H](CC(C)C)N(C)C(=O)C[C@@H](C(=O)N2CCOCC2)N(C)C(=O)[C@H](C2CCCC2)N(C)C(=O)C2(CC2)NC(=O)[C@@H]2CCCN2C(=O)[C@H](CCc2cc(F)c(C(F)(F)F)c(F)c2)NC(=O)CN(C)C(=O)[C@H](Cc2ccc(C(F)(F)F)cc2)N2CCCC[C@@H](C2=O)N(C)C(=O)CN(C)C1=O [PP0559] | B (a compound having 3 or more and less than 10 is denoted as B) | B (a compound having 3 or more and less than 10 is denoted as B)
7 | CC[C@H](C)[C@@H]1NC(=O)[C@H](CC(C)C)N(C)C(=O)C[C@@H](C(=O)N2CCOCC2)N(C)C(=O)[C@H](C2CCCC2)N(C)C(=O)C2(CCC2)NC(=O)[C@@H]2CCCN2C(=O)[C@H](CCc2cc(F)c(C(F)(F)F)c(F)c2)NC(=O)CN(C)C(=O)[C@H](Cc2ccc(C(F)(F)F)cc2)N2CCCC[C@@H](C2=O)N(C)C(=O)CN(C)C1=O [PP0560] | B (a compound having 3 or more and less than 10 is denoted as B) | B (a compound having 3 or more and less than 10 is denoted as B)
8 | CC[C@H](C)[C@@H]1NC(=O)[C@H](CC(C)C)N(C)C(=O)C[C@@H](C(=O)N2CCOCC2)N(C)C(=O)[C@H](C2CCCC2)N(C)C(=O)C2(CCCCC2)NC(=O)[C@@H]2CCCN2C(=O)[C@H](CCc2cc(F)c(C(F)(F)F)c(F)c2)NC(=O)CN(C)C(=O)[C@H](Cc2ccc(C(F)(F)F)cc2)N2CCCC[C@@H](C2=O)N(C)C(=O)CN(C)C1=O [PP0561] | B (a compound having 3 or more and less than 10 is denoted as B) | B (a compound having 3 or more and less than 10 is denoted as B)
9 | CC[C@H](C)[C@@H]1NC(=O)[C@H](CC(C)C)N(C)C(=O)C[C@@H](C(=O)N2CCOCC2)N(C)C(=O)[C@H](C2CCCC2)N(C)C(=O)C2(CC(F)(F)C2)NC(=O)[C@@H]2CCCN2C(=O)[C@H](CCc2cc(F)c(C(F)(F)F)c(F)c2)NC(=O)CN(C)C(=O)[C@H](Cc2ccc(C(F)(F)F)cc2)N2CCCC[C@@H](C2=O)N(C)C(=O)CN(C)C1=O [PP0562] | B (a compound having 3 or more and less than 10 is denoted as B) | B (a compound having 3 or more and less than 10 is denoted as B)
10 | CC[C@H](C)[C@@H]1NC(=O)[C@H](CC(C)C)N(C)C(=O)C[C@@H](C(=O)N2CCOCC2)N(C)C(=O)[C@H](C2CCCC2)N(C)C(=O)C2(COC2)NC(=O)[C@@H]2CCCN2C(=O)[C@H](CCc2cc(F)c(C(F)(F)F)c(F)c2)NC(=O)CN(C)C(=O)[C@H](Cc2ccc(C(F)(F)F)cc2)N2CCCC[C@@H](C2=O)N(C)C(=O)CN(C)C1=O [PP0563] | B (a compound having 3 or more and less than 10 is denoted as B) | B (a compound having 3 or more and less than 10 is denoted as B)
11 | CC[C@H](C)[C@@H]1NC(=O)[C@H](CC(C)C)N(C)C(=O)C[C@@H](C(=O)N2CCOCC2)N(C)C(=O)[C@H](C2CCCC2)N(C)C(=O)C2(CCOCC2)NC(=O)[C@@H]2CCCN2C(=O)[C@H](CCc2cc(F)c(C(F)(F)F)c(F)c2)NC(=O)CN(C)C(=O)[C@H](Cc2ccc(C(F)(F)F)cc2)N2CCCC[C@@H](C2=O)N(C)C(=O)CN(C)C1=O [PP0564] | B (a compound having 3 or more and less than 10 is denoted as B) | B (a compound having 3 or more and less than 10 is denoted as B)
12 | CC[C@H](C)[C@@H]1NC(=O)[C@H](CC(C)C)N(C)C(=O)C[C@@H](C(=O)N2CCOCC2)N(C)C(=O)[C@H](C2CCCC2)N(C)C(=O)C(C)(C)NC(=O)[C@@H]2CCCN2C(=O)[C@H](CCc2cc(F)c(C(F)(F)F)c(F)c2)NC(=O)CN(C)C(=O)[C@H](Cc2ccc(C(F)(F)F)cc2)N2CCCC[C@@H](C2=O)N(C)C(=O)CN(C)C1=O [PP0565] | B (a compound having 3 or more and less than 10 is denoted as B) | C (A compound having a KD ratio of 0.1 or more and less than 3 is denoted as C)
13 | CC[C@H](C)[C@@H]1NC(=O)[C@H](CC(C)C)N(C)C(=O)C[C@@H](C(=O)N2CCOCC2)N(C)C(=O)[C@H](C2CCC2)N(C)C(=O)C2(CCCC2)NC(=O)[C@@H]2CCCN2C(=O)[C@H](CCc2cc(F)c(C(F)(F)F)c(F)c2)NC(=O)CN(C)C(=O)[C@H](Cc2ccc(C(F)(F)F)cc2)N2CCCC[C@@H](C2=O)N(C)C(=O)CN(C)C1=O [PP0566] | B (a compound having 3 or more and less than 10 is denoted as B) | B (a compound having 3 or more and less than 10 is denoted as B)
14 | CC[C@H](C)[C@@H]1NC(=O)[C@H](CC(C)C)N(C)C(=O)C[C@@H](C(=O)N2CCOCC2)N(C)C(=O)[C@H](C2CCCCC2)N(C)C(=O)C2(CCCC2)NC(=O)[C@@H]2CCCN2C(=O)[C@H](CCc2cc(F)c(C(F)(F)F)c(F)c2)NC(=O)CN(C)C(=O)[C@H](Cc2ccc(C(F)(F)F)cc2)N2CCCC[C@@H](C2=O)N(C)C(=O)CN(C)C1=O [PP0567] | B (a compound having 3 or more and less than 10 is denoted as B) | B (a compound having 3 or more and less than 10 is denoted as B)
15 | CC[C@H](C)[C@@H]1NC(=O)[C@H](CC(C)C)N(C)C(=O)C[C@@H](C(=O)N2CCOCC2)N(C)C(=O)[C@H](CC(F)(F)F)N(C)C(=O)C2(CCCC2)NC(=O)[C@@H]2CCCN2C(=O)[C@H](CCc2cc(F)c(C(F)(F)F)c(F)c2)NC(=O)CN(C)C(=O)[C@H](Cc2ccc(C(F)(F)F)cc2)N2CCCC[C@@H](C2=O)N(C)C(=O)CN(C)C1=O [PP0568] | B (a compound having 3 or more and less than 10 is denoted as B) | B (a compound having 3 or more and less than 10 is denoted as B)
16 | CC[C@H](C)[C@@H]1NC(=O)[C@H](CC(C)C)N(C)C(=O)C[C@@H](C(=O)N(C)C)N(C)C(=O)[C@H](C2CCCC2)N(C)C(=O)C2(CCCC2)NC(=O)[C@@H]2CCCN2C(=O)[C@H](CCc2cc(F)c(C(F)(F)F)c(F)c2)NC(=O)CN(C)C(=O)[C@H](Cc2ccc(C(F)(F)F)cc2)N2CCCC[C@@H](C2=O)N(C)C(=O)CN(C)C1=O [PP0569] | B (a compound having 3 or more and less than 10 is denoted as B) | C (A compound having a KD ratio of 0.1 or more and less than 3 is denoted as C)
